Measurements: PubChem BioAssay AID330 (DTP/NCI, 2004)
“And” between values parts separate entries of the source, which are not always exact repeats. Equal values may be shown once. Inconclusive results and toxic doses are left out.

System: P388 leukemia ip, CD2F1 mice, survival T/C
Assay: NCI In Vivo Anticancer Drug Screen. Data for tumor model P388 Leukemia (intraperitoneal) in CD2F1 (CDF1) mice
Conditions: endpoint: median survival time, higher = longer survival
How it was run: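 Mice carrying the transplanted tumor received test compound or vehicle. Survival was recorded in each group, and the value is the treated-group measurement divided by that of the vehicle-treated control group.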

[1] = dose: 100.0 mg/kg/injection, schedule: Q04DX003 (ip), vehicle: saline with Tween-80
[2] = dose: 200.0 mg/kg/injection, schedule: Q04DX003 (ip), vehicle: saline with Tween-80
[3] = dose: 400.0 mg/kg/injection, schedule: Q04DX003 (ip), vehicle: saline with Tween-80
[4] = dose: 50.0 mg/kg/injection, schedule: Q01DX005 (ip), vehicle: Klucel (hydroxypropylcellulose) (HPC)
[5] = dose: 100.0 mg/kg/injection, schedule: Q01DX005 (ip), vehicle: Klucel (hydroxypropylcellulose) (HPC)
[6] = dose: 200.0 mg/kg/injection, schedule: Q01DX005 (ip), vehicle: Klucel (hydroxypropylcellulose) (HPC)
[7] = dose: 50.0 mg/kg/injection, schedule: Q01DX005 (ip), vehicle: saline with Tween-80
[8] = dose: 100.0 mg/kg/injection, schedule: Q01DX005 (ip), vehicle: saline with Tween-80
[9] = dose: 60.0 mg/kg/injection, schedule: Q01DX005 (ip), vehicle: saline with Tween-80
[10] = dose: 120.0 mg/kg/injection, schedule: Q01DX005 (ip), vehicle: saline with Tween-80
[11] = dose: 240.0 mg/kg/injection, schedule: Q01DX005 (ip), vehicle: saline with Tween-80
[12] = dose: 12.5 mg/kg/injection, schedule: Q01DX009 (ip), vehicle: saline with Tween-80
[13] = dose: 25.0 mg/kg/injection, schedule: Q01DX009 (ip), vehicle: saline with Tween-80

In the case of `CCN(CC)S(=O)(=O)c1ccc(-c2cc(Cl)c3cc(S(=O)(=O)F)ccc3n2)cc1`, the T/C [1] is reported as 100 % of control, the T/C [2] is reported as 100 % of control and the T/C [3] is reported as 95 % of control.

With `C(=Nc1ccccc1)C1=C(Nc2ccccc2)CCC1` the T/C [4] was 100 % of control, the T/C [5] was 100 % of control and the T/C [6] was 106 % of control.

For `Cc1nc2nc(O)c(Cc3ccccc3)c(=O)n2nc1C`, the T/C [4] was 95 % of control, the T/C [5] was 93 % of control and the T/C [6] was 95 % of control.

In the case of `C(CCc1nn[nH]n1)CCC1CCCCC1`, the T/C [7] is reported as 96 % of control and the T/C [8] is reported as 107 % of control.

`COC(=O)C1=C/CCCN(CCC2OCCO2)/C=C\1C(=O)OC` was tested, and the T/C [1] was 106 % of control, the T/C [2] was 99 % of control and the T/C [3] was 108 % of control.

In the case of `O=S(=O)(Nc1ccc(Cl)cc1C(F)(F)F)c1ccc(F)cc1`, the T/C [9] is reported as 100 % of control and the T/C [10] is reported as 110 % of control.

For `c1ccc(P2(c3ccccc3)=NSN=S=N2)cc1`, the T/C [7] was 107 % of control, the T/C [8] was 116 % of control and the T/C (dose: 200.0 mg/kg/injection, schedule: Q01DX005 (ip), vehicle: saline with Tween-80) was 108 % of control.

With `C/C(CC(C)C(=O)O)=N/NC(N)=O` (centres undefined) the T/C [4] was 97 % of control, the T/C [5] was 97 % of control and the T/C [6] was 97 % of control.

For `O=C1C(=Cc2cc(Cl)c(O)c(Cl)c2)C(=O)c2ccccc21`, the T/C (dose: 100.0 mg/kg/injection, schedule: Q04DX002 (ip), vehicle: saline) was 97 % of control, the T/C (dose: 200.0 mg/kg/injection, schedule: Q04DX002 (ip), vehicle: saline) was 86 % of control and the T/C (dose: 400.0 mg/kg/injection, schedule: Q04DX002 (ip), vehicle: saline) was 88 % of control.

`OC(Cc1cncc(CC(O)(C(F)(F)F)C(F)(F)F)n1)(C(F)(F)F)C(F)(F)F` was tested, and the T/C (dose: 50.0 mg/kg/injection, schedule: Q01DX009 (ip), vehicle: saline) was 99 % of control, the T/C (dose: 100.0 mg/kg/injection, schedule: Q01DX009 (ip), vehicle: saline) was 98 % of control and the T/C (dose: 200.0 mg/kg/injection, schedule: Q01DX009 (ip), vehicle: saline) was 102 % of control.

`C[N+]1=C(c2ccc[nH]2)CC(C(=O)[O-])CC1` (centres undefined) was tested, and the T/C [9] was 100 % of control, the T/C [10] was 106 % of control and the T/C [11] was 102 % of control.

In the case of `CCCC(=O)Nc1cc2c3c(c1)CCCN3CCC2`, the T/C [12] is reported as 100 % of control and the T/C [13] is reported as 95 % of control.

For `Cc1cc(C2(O)CCCc3ccccc32)[n+]([O-])cc1C` (centres undefined), the T/C (dose: 50.0 mg/kg/injection, schedule: Q01DX005 (ip), vehicle: saline + Tween-80 + alcohol) was 106 % of control, the T/C (dose: 100.0 mg/kg/injection, schedule: Q01DX005 (ip), vehicle: saline + Tween-80 + alcohol) was 104 % of control and the T/C (dose: 200.0 mg/kg/injection, schedule: Q01DX005 (ip), vehicle: saline + Tween-80 + alcohol) was 107 % of control.

In the case of `CCc1cc(C)cc(NC(=O)OC2CCCCC2C)c1` (centres undefined), the T/C [9] is reported as 102 % of control, the T/C [10] is reported as 112 % of control and the T/C [11] is reported as 111 % of control.

For `O=[N+]([O-])c1ccc(N2C(c3ccccc3)=N[C@@H](N3CCCCC3)[C@@H]2N2CCCCC2)cc1`, the T/C [4] was 97 % of control, the T/C [5] was 100 % of control and the T/C [6] was 93 % of control.

In the case of `COc1ccc(C2=NC(c3ccccc3)N3C(c4ccccc4)NC(c4ccccc4)C2C3c2ccccc2)cc1` (centres undefined), the T/C [12] is reported as 100 % of control, the T/C [13] is reported as 90 % of control and the T/C (dose: 50.0 mg/kg/injection, schedule: Q01DX009 (ip), vehicle: saline with Tween-80) is reported as 90 % of control and 93 % of control. For the same compound, the T/C (dose: 200.0 mg/kg/injection, schedule: Q01DX009 (ip), vehicle: saline with Tween-80) was 91 % of control.

With `CC1(C)N=C(N)N=C(N)N1c1cccc(CNc2ccc(S(N)(=O)=O)cc2)c1` the T/C (dose: 7.5 mg/kg/injection, schedule: Q01DX005 (ip), vehicle: Klucel (hydroxypropylcellulose) (HPC)) was 102 % of control, the T/C (dose: 15.0 mg/kg/injection, schedule: Q01DX005 (ip), vehicle: Klucel (hydroxypropylcellulose) (HPC)) was 100 % of control and the T/C (dose: 30.0 mg/kg/injection, schedule: Q01DX005 (ip), vehicle: Klucel (hydroxypropylcellulose) (HPC)) was 102 % of control.
